The values that follow are results of earlier work, collected in patent US7345028B1, “Energy-protective composition comprising adenosine phosphates” (priority 2002, dated 2008).

The data set deals with experimental animals. The note with it: administered prior to and after gamma irradiation.

On to `Nc1ncnc2c1ncn2[C@@H]1O[C@H](COP(=O)(O)OP(=O)(O)O)[C@@H](O)[C@H]1O` [adenosine diphosphate], for which the “protective action against irradiation” value was “protective action”.
